Experimental data from patent US20250197373A1, “SMALL MOLECULE COMPOUND OR SALT THEREOF OR SOLVATE OF THEM, GUANINE NUCLEOTIDE-BINDING PROTEIN G(Q) SUBUNIT ALPHA (GNAQ) INHIBITOR CONTAINING THE SAME AND METHOD FOR TREATING AND/OR PREVENTING CANCER” (INDUSTRIAL TECHNOLOGY RESEARCH INSTITUTE, priority 2023, published 2025).
Blank lines part the entries; values can stand above or below the compound they belong to.

Legend:
[1] = Half cytotoxic concentration on normal mammary gland epithelial cells MCF-10A-5E (PrestoBlue); format: cell-based; conditions: human, MCF-10A-5E normal mammary gland epithelial cells, 5 days culture, 10% horse serum, read-out: Non-toxicity (evaluated by CC50)
Description: Human normal mammary epithelial cells, MCF-10A-5E cells, were cultured in DMEM/F12K (1:1) medium, wherein Insulin-Transferrin-Selenium (ITS-G) (41400045; Thermo Fisher Scientific) diluted 1,000-fold for use, EGF stock (1 mg/mL) (10605-HNAE; Sino Biological) diluted 2,000-fold for use and Hydrocortisone stock (1 mg/mL) (S1696; Selleck Chemicals) diluted 2,000-fold for use were additionally added to the medium.
5×10^3 of the cells mentioned above were seeded in a 96-well plate and cultured overnight (at least 16 hours) in a carbon dioxide incubator.
After overnight incubation, the supernatant was removed. Next, after 200 μL of cell culture medium (containing 10% horse serum) containing different concentrations of test compound was added to each well of the 96-well plate, the 96-well plate was placed in a 5% carbon dioxide incubator at 37° C. for 5 days further culture. After that, an additional 30 μL of diluted PrestoBlue™ Cell Viability Reagent (Catalog Number: A13261; Thermo Fisher Scientific) (4 μL stock solution and 26 μL culture medium) was added to each well of the 96-well plate and the reaction was continued for further about 1 hour.
Finally, the fluorescence value at the wavelength of 535/615 nm of each well was read with a plate enzyme immunoassay analyzer, and the fatality rate of the compound on normal mammary gland epithelial cells were calculated using the following formula.
Moreover, the half cytotoxic concentration (50% cytotoxic concentration, CC50) of the compound on normal mammary gland epithelial cells was calculated with the fatality rate of compound on normal mammary gland epithelial cells at each concentration through the online half maximal inhibitory concentration (IC50) calculation software, ICso Calculator, provided by AAT Bioquest company on its website (https://www.aatbio.com/tools/ic50-calculator).
Finally, toxicity of the compound on normal mammary gland epithelial cells was evaluated by the calculated half cytotoxic concentration (CC50) of the compound on normal mammary gland epithelial cells.
In addition, the toxicity of the compound on normal mammary gland epithelial cells was evaluated by the half cytotoxic concentration (CC50) of the compound (one of Compound 1 to Compound 15 prepared above) on normal mammary gland epithelial cells through the human normal mammary gland epithelial cell line MCF-T0A-5E.

GNAQ (T96S) = molecular target: T1, GNAQ (T96S) (Homo sapiens, UniProt P50148, T96S); experiment: SRE luciferase reporter gene-HEK293 cell line, GNAQ (T96S); format: cell-based; conditions: Cell type T96S, 20% FBS induction, read-out: GNAQ inhibitory rate; for inhibition at 0.9 µM: analytical concentration 900 nM; for inhibition at 2.7 µM: analytical concentration 2,700 nM; for inhibition at 8.1 µM: analytical concentration 8,100 nM
T1 construct: BPS Bioscience (parental reporter cell line) 60406
T1 sequence (P50148 1-359 T96S): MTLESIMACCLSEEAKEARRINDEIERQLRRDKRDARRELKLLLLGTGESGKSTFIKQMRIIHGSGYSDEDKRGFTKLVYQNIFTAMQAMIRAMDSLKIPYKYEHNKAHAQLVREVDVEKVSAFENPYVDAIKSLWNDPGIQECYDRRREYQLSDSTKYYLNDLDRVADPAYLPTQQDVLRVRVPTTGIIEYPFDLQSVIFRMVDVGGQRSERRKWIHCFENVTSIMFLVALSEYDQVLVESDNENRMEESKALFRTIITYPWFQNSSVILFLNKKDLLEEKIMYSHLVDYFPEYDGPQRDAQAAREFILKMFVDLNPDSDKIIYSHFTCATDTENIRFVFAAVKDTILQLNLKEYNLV
Description: 7.5×10^4 SRE-293-GNAQ (WT) or SRE-293-GNAQ (T96S) cell lines were seeded in a 24-well plate and cultured in a carbon dioxide incubator at 37° C. SRE-293-GNAQ (WT) or SRE-293-GNAQ (T96S) cell lines was derived from additionally transfecting SRE Reporter—HEK293 Recombinant Cell Line (ERK Pathway) (Catalog number: 60406; BPS Bioscience) cells with an expression vector separately expressing GNAQ (WT) or GNAQ (T96S), and screening a stable expression cell line by the antibiotic, geneticin (type number 10131035; Thermo Fisher Scientific). GNAQ (WT) or GNAQ (T96) expression vector was derived from gene synthesis and point mutation modification of GenScript company's customized services.
After 48 hours of culture, the culture medium in the 24-well plate was replaced with minimal essential medium (MEM) containing only 0.1% fetal bovine serum (FBS) and the cells were cultured overnight.
After overnight culture, the compound to be tested was added to the cells and reacted for 2 hours, and the medium at this point was still MEM medium containing only 0.1% fetal bovine serum. After reacting with the compound to be tested for 2 hours, fetal bovine serum at a final concentration of 20% was added to the cells and reacted for at least 4 hours. After the reaction, the supernatant was removed. Next, 100 μL of cell lysis reagent CelLytic M Cell Lysis Reagent (Catalog number: C2978; Sigma) was added to the cells and aspirated repeatedly several times to form a cell lysate solution with the cells. The cell lysate solution was collected in a microcentrifuge tube and centrifuged at a high speed of 14,000 rpm for 5 minutes. After that, 30 μL of supernatant was taken out and placed in a 96-well white plate for luminescence analysis, and 30 μL of firefly luminescence analysis reagent (Catalog No. E1501; Promega) diluted 3-fold was added and mixed well, and then luminescence detection was performed with a plate enzyme immunoassay analyzer (ELISA reader) to evaluate the effect of the compound to be tested on MAPK signaling induced by GNAQ through the expression of the firefly luciferase reporter gene.
In order to confirm the effect of the compounds on MAPK signaling induced by GNAQ, the screened SRE-HEK293 cells capable of expressing exogenous GNAQ (WT) and GNAQ (T96S) genes were subjected to overnight serum starvation, and 2 hours before induction with 20% fetal bovine serum, the compound to be tested (one of Compound 1 to Compound 15 prepared above) was added to the cells, and after serum induction, the expression of the firefly luciferase reporter gene was measured. Through the above steps, the inhibition of the compound to be tested on GNAQ expression could be evaluated through the expression of the reporter gene in cells.

SMILES: N#Cc1cccc(-c2nccc(-c3cccc(NC(=O)Nc4cc(Cl)nc(Cl)c4)c3)n2)c1 [Compound 3]
CC50 at 5 days [1]: 10 to 20 µM
inhibition at 0.9 µM (GNAQ (T96S)): < 10%
inhibition at 2.7 µM (GNAQ (T96S)): 40 to 70%
inhibition at 8.1 µM (GNAQ (T96S)): > 70%

SMILES: O=C(Nc1cccc(-c2ccnc(-c3cccc(C(F)(F)F)c3)n2)c1)Nc1cc(Cl)nc(Cl)c1 [Compound 2]
CC50 at 5 days [1]: 10 to 20 µM
inhibition at 0.9 µM (GNAQ (T96S)): < 10%
inhibition at 2.7 µM (GNAQ (T96S)): 10 to 39%
inhibition at 8.1 µM (GNAQ (T96S)): > 70%

SMILES: O=C(Nc1ccc(-c2ccnc(-c3cccc(C(F)(F)F)c3)n2)cc1)Nc1ccc(Cl)c(C(F)(F)F)c1 [Compound 8]
CC50 at 5 days [1]: 10 to 20 µM
inhibition at 0.9 µM (GNAQ (T96S)): < 10%
inhibition at 2.7 µM (GNAQ (T96S)): < 10%
inhibition at 8.1 µM (GNAQ (T96S)): 10 to 39%

SMILES: FC(F)(F)c1cccc(-c2cccc(-c3ccc(NC(=S)Nc4cc(Cl)nc(Cl)c4)cc3)n2)c1 [Compound 10]
CC50 at 5 days [1]: > 20 µM
inhibition at 0.9 µM (GNAQ (T96S)): < 10%
inhibition at 2.7 µM (GNAQ (T96S)): 40 to 70%
inhibition at 8.1 µM (GNAQ (T96S)): > 70%

SMILES: O=C(Nc1ccc(-c2cccc(-c3ccncc3)n2)cc1)Nc1ccc(Cl)c(C(F)(F)F)c1 [Compound 12]
CC50 at 5 days [1]: 10 to 20 µM
inhibition at 0.9 µM (GNAQ (T96S)): 10 to 39%
inhibition at 2.7 µM (GNAQ (T96S)): 40 to 70%
inhibition at 8.1 µM (GNAQ (T96S)): 40 to 70%

SMILES: O=C(Nc1cccc(-c2ccnc(-c3cccc(C(F)(F)F)c3)n2)c1)c1cc(Cl)nc(Cl)c1 [Compound 5]
CC50 at 5 days [1]: > 20 µM
inhibition at 0.9 µM (GNAQ (T96S)): < 10%
inhibition at 2.7 µM (GNAQ (T96S)): < 10%
inhibition at 8.1 µM (GNAQ (T96S)): < 10%

SMILES: O=C(Nc1ccc(-c2nc(-c3ccccc3)ncc2Cl)cc1)Nc1cc(Cl)nc(Cl)c1 [Compound 15]
CC50 at 5 days [1]: 10 to 20 µM
inhibition at 0.9 µM (GNAQ (T96S)): < 10%
inhibition at 2.7 µM (GNAQ (T96S)): 10 to 39%
inhibition at 8.1 µM (GNAQ (T96S)): 40 to 70%

SMILES: O=C(Nc1ccc(-c2ccnc(-c3ccncc3)n2)cc1)Nc1ccc(Cl)c(C(F)(F)F)c1 [Compound 6]
CC50 at 5 days [1]: 10 to 20 µM
inhibition at 0.9 µM (GNAQ (T96S)): 10 to 39%
inhibition at 2.7 µM (GNAQ (T96S)): 10 to 39%
inhibition at 8.1 µM (GNAQ (T96S)): 40 to 70%

Continued, in another order:

inhibition at 0.9 µM (GNAQ (T96S)): < 10%
inhibition at 2.7 µM (GNAQ (T96S)): 10 to 39%
inhibition at 8.1 µM (GNAQ (T96S)): 10 to 39%
SMILES: O=C(Nc1ccc(-c2ccnc(-c3cccc(C(F)(F)F)c3)n2)cc1)Nc1cc(Cl)nc(Cl)c1 [Compound 7]
CC50 at 5 days [1]: 10 to 20 µM

inhibition at 0.9 µM (GNAQ (T96S)): 10 to 39%
inhibition at 2.7 µM (GNAQ (T96S)): 40 to 70%
inhibition at 8.1 µM (GNAQ (T96S)): > 70%
SMILES: O=C(Nc1cccc(-c2cccc(-c3ccncc3)n2)c1)Nc1cc(Cl)nc(Cl)c1 [Compound 13]
CC50 at 5 days [1]: > 20 µM

inhibition at 0.9 µM (GNAQ (T96S)): 10 to 39%
inhibition at 2.7 µM (GNAQ (T96S)): 10 to 39%
inhibition at 8.1 µM (GNAQ (T96S)): > 70%
SMILES: O=C(Nc1cccc(-c2cc(-c3cccc(C(F)(F)F)c3)ncn2)c1)Nc1cc(Cl)nc(Cl)c1 [Compound 14]
CC50 at 5 days [1]: 10 to 20 µM

inhibition at 0.9 µM (GNAQ (T96S)): 10 to 39%
inhibition at 2.7 µM (GNAQ (T96S)): 40 to 70%
inhibition at 8.1 µM (GNAQ (T96S)): > 70%
SMILES: N#Cc1cccc(-c2cccc(-c3ccc(NC(=S)Nc4cc(Cl)nc(Cl)c4)cc3)n2)c1 [Compound 11]
CC50 at 5 days [1]: > 20 µM

inhibition at 0.9 µM (GNAQ (T96S)): < 10%
inhibition at 2.7 µM (GNAQ (T96S)): 10 to 39%
inhibition at 8.1 µM (GNAQ (T96S)): 40 to 70%
SMILES: O=C(Nc1cccc(-c2ccnc(-c3ccc(F)c(F)c3)n2)c1)Nc1cc(Cl)nc(Cl)c1 [Compound 4]
CC50 at 5 days [1]: 5 to 10 µM

inhibition at 0.9 µM (GNAQ (T96S)): < 10%
inhibition at 2.7 µM (GNAQ (T96S)): 10 to 39%
inhibition at 8.1 µM (GNAQ (T96S)): 40 to 70%
SMILES: O=C(Nc1ccc(-c2cccc(-c3cccc(C(F)(F)F)c3)n2)cc1)Nc1cc(Cl)nc(Cl)c1 [Compound 9]
CC50 at 5 days [1]: 10 to 20 µM

inhibition at 0.9 µM (GNAQ (T96S)): < 10%
inhibition at 2.7 µM (GNAQ (T96S)): 10 to 39%
inhibition at 8.1 µM (GNAQ (T96S)): > 70%
SMILES: O=C(Nc1cccc(-c2ccnc(-c3ccnc(Cl)c3)n2)c1)Nc1cc(Cl)nc(Cl)c1 [Compound 1]
CC50 at 5 days [1]: > 20 µM
